Test systems include OVCAR-8 ovarian; IGROV1 ovarian; SNB-75 CNS; K-562 leukemia; TK-10 renal; HL-60(TB) leukemia; HOP-92 NSCLC; HS 578T breast; HCT-15 colon; LOX IMVI melanoma; MOLT-4 leukemia; 786-0 renal; KM12 colon; SNB-19 CNS; MDA-MB-435; A498 renal; OVCAR-5 ovarian.
Experiment in all cases: NCI-60 cell line screen, 48 h

Several values for one entry are separate records, joined by “and”; a condition that tells them apart may be missing. Equal values may be shown once.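 Protocol summary: plate cells (96-well), add compound at 5 concentrations, incubate 48 h, interpolate endpoints linearly. GI50 marks 50% less growth. TGI denotes the concentration required for complete inhibition of growth.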

As to `CSC1=C(C(=O)Nc2ccc(C)cc2)C(N)=NC1=O`, the TGI in the test on OVCAR-8 ovarian, in the test with IGROV1 ovarian, with SNB-75 CNS, with K-562 leukemia, with TK-10 renal and with HL-60(TB) leukemia was more than 100 µM in each case. Moreover, the TGI with HOP-92 NSCLC, in the test with HS 578T breast, in the test with HCT-15 colon, in the test on LOX IMVI melanoma, in the test with MOLT-4 leukemia and with 786-0 renal was more than 100 µM each time. For the same molecule, the TGI in the test with KM12 colon, with SNB-19 CNS and in the test with MDA-MB-435 was more than 100 µM each time.

Regarding `NC(=O)C(=CNC(=S)Nc1ccc(S(=O)(=O)Nc2ccccn2)cc1)C(N)=O`, the TGI with OVCAR-8 ovarian, with IGROV1 ovarian, in the test with SNB-75 CNS, in the test on K-562 leukemia, in the test on TK-10 renal and in the test on HOP-92 NSCLC was more than 100 µM in each case. Besides, the TGI in the test with HS 578T breast was more than 100 µM; in the test with HCT-15 colon, more than 100 µM; in the test on LOX IMVI melanoma, more than 100 µM; with MOLT-4 leukemia it was 5.76 µM; with A498 renal, more than 100 µM; with 786-0 renal, more than 100 µM. Moreover, the TGI in the test on OVCAR-5 ovarian, in the test with KM12 colon, with SNB-19 CNS and in the test on MDA-MB-435 was more than 100 µM throughout.

With `CCc1cc2c(c3c1CCCC3)CC1(Cc3ccc(C(=O)OC)cc3C1)C2` (centres undefined), the TGI in the test with OVCAR-8 ovarian is more than 100 µM; with IGROV1 ovarian it was more than 100 µM; in the test on SNB-75 CNS it was more than 100 µM; with K-562 leukemia it was more than 100 µM; in the test on TK-10 renal, more than 100 µM; in the test on HL-60(TB) leukemia it was 51.6 µM. For the same molecule, the TGI with HOP-92 NSCLC, in the test on HS 578T breast, in the test with HCT-15 colon, in the test with LOX IMVI melanoma, in the test on MOLT-4 leukemia and in the test with 786-0 renal was more than 100 µM in each case. Besides, the TGI in the test on OVCAR-5 ovarian, with KM12 colon, in the test with SNB-19 CNS and in the test on MDA-MB-435 was more than 100 µM in each case.

Consider `N/C(=N\N=C\c1cc(I)cc(I)c1O)NO`, for which the TGI was more than 100 µM with OVCAR-8 ovarian; more than 100 µM in the test with IGROV1 ovarian; more than 100 µM in the test on K-562 leukemia; more than 100 µM in the test on TK-10 renal; 35.4 µM with HL-60(TB) leukemia; more than 100 µM in the test on HS 578T breast. In addition, the TGI in the test with HCT-15 colon, in the test with LOX IMVI melanoma, in the test with MOLT-4 leukemia, in the test with A498 renal, with 786-0 renal and in the test on OVCAR-5 ovarian was more than 100 µM in each case. Besides, the TGI in the test on KM12 colon, in the test on SNB-19 CNS and in the test with MDA-MB-435 was more than 100 µM throughout.

On to `CC(=O)OCC1OC(n2c(N)c(C#N)c(C)c(C#N)c2=S)C(OC(C)=O)C(OC(C)=O)C1OC(C)=O` (centres undefined), for which the TGI with OVCAR-8 ovarian, in the test with IGROV1 ovarian, in the test on SNB-75 CNS, in the test on TK-10 renal, with HOP-92 NSCLC and in the test on HS 578T breast was more than 100 µM each time. For the same molecule, the TGI with HCT-15 colon, with LOX IMVI melanoma, in the test on MOLT-4 leukemia, with A498 renal, in the test on 786-0 renal and in the test on OVCAR-5 ovarian was more than 100 µM in each case. In addition, the TGI in the test with KM12 colon, in the test with SNB-19 CNS and in the test on MDA-MB-435 was more than 100 µM in each case. The GI50 in the test on HOP-92 NSCLC is 43.8 µM and > 100 µM.

With `NS(=O)(=O)c1nnc(NC(=O)c2cccc([N+](=O)[O-])c2)s1`, the TGI in the test with OVCAR-8 ovarian, in the test on K-562 leukemia, in the test with TK-10 renal, with HL-60(TB) leukemia, in the test on HOP-92 NSCLC and in the test with HS 578T breast was more than 100 µM each time. In addition, the TGI with HCT-15 colon, in the test with LOX IMVI melanoma, in the test with MOLT-4 leukemia, in the test on 786-0 renal, in the test on OVCAR-5 ovarian and with KM12 colon was more than 100 µM in each case. Moreover, the TGI with SNB-19 CNS and in the test with MDA-MB-435 was more than 100 µM each time.

Consider `OC(Cc1ccc2ccccc2n1)(C(F)(F)Cl)C(F)(F)Cl`, for which the TGI in the test with OVCAR-8 ovarian, with IGROV1 ovarian, in the test with SNB-75 CNS, in the test with K-562 leukemia, with TK-10 renal and in the test on HOP-92 NSCLC was more than 10 µM each time. The TGI in the test with HS 578T breast, in the test on HCT-15 colon, with LOX IMVI melanoma, in the test with MOLT-4 leukemia, in the test on A498 renal and with 786-0 renal was more than 10 µM each time. Also, the TGI with OVCAR-5 ovarian, with KM12 colon, in the test with SNB-19 CNS and in the test with MDA-MB-435 was more than 10 µM each time.

In the case of `CC(=O)Oc1c(OC(C)C)c(C)c(O[Si](C(C)C)(C(C)C)C(C)C)c2[nH]c3ccccc3c12`, the TGI in the test on OVCAR-8 ovarian is more than 100 µM; with IGROV1 ovarian, more than 100 µM; with SNB-75 CNS, more than 100 µM; in the test with K-562 leukemia, more than 100 µM; in the test with TK-10 renal, more than 100 µM; with HL-60(TB) leukemia, 8.43 µM. For the same molecule, the TGI is more than 100 µM with HOP-92 NSCLC; more than 100 µM with HS 578T breast; more than 100 µM with HCT-15 colon; more than 100 µM in the test on LOX IMVI melanoma; more than 24.2 µM in the test on MOLT-4 leukemia; more than 100 µM in the test with 786-0 renal. The TGI in the test on OVCAR-5 ovarian, with KM12 colon, in the test with SNB-19 CNS and with MDA-MB-435 was more than 100 µM each time.

As to `C[C@@H]1CCC2C(C)(C)C(/C=C\C=O)C3(C)OC213` (some centres undefined), the TGI in the test on OVCAR-8 ovarian is 44.5 µM; in the test on IGROV1 ovarian, more than 100 µM; in the test on SNB-75 CNS it was more than 100 µM; with K-562 leukemia, more than 100 µM; in the test with TK-10 renal, more than 100 µM; with HOP-92 NSCLC it was 93.9 µM. The TGI was 75.6 µM in the test on HS 578T breast; more than 100 µM with HCT-15 colon; 86.9 µM in the test on MOLT-4 leukemia; more than 100 µM in the test on A498 renal; more than 100 µM in the test with 786-0 renal; 69.6 µM in the test on OVCAR-5 ovarian. Besides, the TGI with KM12 colon, with SNB-19 CNS and in the test on MDA-MB-435 was more than 100 µM in each case.

The values are drawn from PubChem BioAssay (NCI).
